Reference: US12570641B2, “Solid forms of a CDK4 inhibitor” (Pfizer Inc., priority 2020, dated 2026)

Legend:
Format in all cases: physicochemical
[1] = Thermal stability by Differential Scanning Calorimetry (DSC)
Procedure: Modulated Differential scanning calorimetry (DSC) measurements were performed with Discovery DSC (TA instruments) equipped with a refrigerated cooling accessory. All the experiments were performed in standard/Tzero aluminum pans. The cell constant was determined using indium and temperature calibration was performed using indium and tin as standards. All the measurements were done under continuous dry nitrogen purge (50 mL/min). Approximately 1-5 mg of solid sample was weighed into a Tzero aluminum pan, sealed non-hermetically and heated from −40° C. to 220° C. at 10° C./min heating rate. The experimental data were analyzed using commercially available software (TA Universal Analysis 2000/Trios software, TA Instruments).
(§1) Thermal stability data were obtained through thermogravimetric analysis (TGA) according to General Method 4, and Differential Scanning Calorimetry (DSC) scan according to General Method 5A.

[2] = Slurry conversion in 10% MeCN/water, form by PXRD; settings: room temperature
Procedure: Crystalline PF-07220060 hydrate (Form 1) (25 mg) prepared as described in Example 1, Vial A was suspended in 10% MeCN/water (0.5 mL) and slurried at room temperature for […].

[3] = Thermal stability by thermogravimetric analysis (TGA)
Procedure: Thermogravimetric analysis was conducted using a Discovery TGA (TA instruments) thermogravimetric analyzer. Samples of approximately 10 mg were weighed into aluminum pans and heated from ambient ([…]) to 250° C. at 10° C./minute heating rate under nitrogen purge (10 mL/min for both sample chamber and balance).
as §1

[4] = Competitive slurry experiments in 2-propanol/1% water; settings: 2-propanol/1% water, room temperature, 15 hours, PXRD
Procedure: Competitive slurry experiments were performed between Form 1 and Form 2 (Entry 1), and between Form 6 and Form 2 (Entry 2), in 2-propanol/1% water. Entry 1: […] The solids were collected with vacuum filtration and analyzed with PXRD. PXRD data was consistent with PF-07220060 monohydrate (Form 2). Entry 2: […] The solids were collected with vacuum filtration and analyzed with PXRD. PXRD data was consistent with PF-07220060 monohydrate (Form 2).

[5] = Moisture sorption (hygroscopicity), water sorption and desorption; settings: for form change at the completion of the moisture sorption run by PXRD: 25° C.; for Weight Gain (%) at 25° C., 60% RH: comparative summary of Forms 1, 2, 6 and 8
Procedure: Water sorption and desorption studies were conducted on an automated vapor sorption analyzer (TA instruments Q5000 SA). The microbalance was calibrated using a 100 mg standard weight. The relative humidity (RH) sensor was calibrated at 5.0, 11.3, 32.8, 52.8, 75.3, and 84.3% RH (25° C.) using saturated salt solutions. Approximately 10-20 mg of the powder sample was placed in the quartz sample holder and dried at 3% RH at 60° C. The attainment of equilibrium was assumed when the weight change of the sample was <0.001 wt % in 5 min or by a maximum equilibration time of 300 minutes. […] Again, the attainment of equilibrium was assumed when the weight change of the sample was <0.001 wt % in 5 min or by a maximum equilibration time of 300 minutes. The weight gain at 60% RH is based on the weight after the initial drying step.
Water sorption and desorption studies of PF-07220060 monohydrate (Form 2), prepared as described in Example 2, were conducted according to General Method 6.
Water sorption and desorption studies of PF-07220060 hydrate (Form 1), prepared as described in Example 5B, were conducted according to General Method 6.
Comparative hygroscopicity experiments were performed using moisture sorption analysis according to General Method 6. PF-07220060 Forms 1, 2, 6, and 8 were evaluated using moisture sorption at 25° C., 60% RH. A form change at the completion of the run was not detected for any of the forms by PXRD.

With `CC(C)n1c(C(C)(C)O)nc2c(F)cc(-c3nc(N[C@@H]4CCOC[C@H]4O)ncc3Cl)cc21` [Form 1, 1,5-anhydro-3-({5-chloro-4-[4-fluoro-2-(2-hydroxypropan-2-yl)-1-(propan-2-yl)-1H-benzimidazol-6-yl]pyrimidin-2-yl}amino)-2,3-dideoxy-D-threo-pentitol] as the compound, how does the “Thermal stability via DSC (° C.)” value ([1]; listed as Form 1 (hydrate)) read?
The value was 0 °C.

And the “form after slurry by PXRD” value [2]?
The value was “converted to PF-07220060 monohydrate (Form 2)”.

What about the “Thermal stability via TGA (° C.)” value ([3]; listed as Form 1 (hydrate)) of the same compound?
The value was 20 °C.

What about the Out-going form [4] of the same compound?
The Out-going form was “converted to Form 2”.

What about the “form change at the completion of the moisture sorption run by PXRD” value (from here on “form change at the completion”) ([5]; 60% RH) of the same compound?
The value was “not detected”.

And the “Weight gain (%)” value ([5]; 25 °C, RH 0%, listed as PF-07220060 hydrate (Form 1))?
The value was 0.05%.

And the “Weight gain (%)” value ([5]; 25 °C, RH 10%, desorption, listed as PF-07220060 hydrate (Form 1))?
Its value is 1.26%.

And the “Weight gain (%)” value ([5]; 25 °C, RH 10%, sorption, listed as PF-07220060 hydrate (Form 1))?
The value was 1.23%.

And the “Weight gain (%)” value ([5]; 25 °C, RH 20%, desorption, listed as PF-07220060 hydrate (Form 1))?
The value was 2.38%.

And the “Weight gain (%)” value ([5]; 25 °C, RH 20%, sorption, listed as PF-07220060 hydrate (Form 1))?
The value was 2.34%.

And the “Weight gain (%)” value ([5]; 25 °C, RH 30%, desorption, listed as PF-07220060 hydrate (Form 1))?
Its value is 2.87%.

What about the “Weight gain (%)” value ([5]; 25 °C, RH 30%, sorption, listed as PF-07220060 hydrate (Form 1)) of the same compound?
The value was 2.84%.

And the “Weight gain (%)” value ([5]; 25 °C, RH 40%, desorption, listed as PF-07220060 hydrate (Form 1))?
Its value is 3.13%.

What about the “Weight gain (%)” value ([5]; 25 °C, RH 40%, sorption, listed as PF-07220060 hydrate (Form 1)) of the same compound?
Its value is 3.10%.

What about the “Weight gain (%)” value ([5]; 25 °C, RH 50%, desorption, listed as PF-07220060 hydrate (Form 1)) of the same compound?
Its value is 3.30%.

And the “Weight gain (%)” value ([5]; 25 °C, RH 50%, sorption, listed as PF-07220060 hydrate (Form 1))?
Its value is 3.26%.

What about the “Weight gain (%)” value ([5]; 25 °C, RH 60%, desorption, listed as PF-07220060 hydrate (Form 1)) of the same compound?
Its value is 3.41%.

What about the “Weight gain (%)” value ([5]; 25 °C, RH 60%, sorption, listed as PF-07220060 hydrate (Form 1)) of the same compound?
The value was 3.37%.

What about the “Weight gain (%)” value ([5]; 25 °C, RH 70%, desorption, listed as PF-07220060 hydrate (Form 1)) of the same compound?
The value was 3.49%.

What about the “Weight gain (%)” value ([5]; 25 °C, RH 70%, sorption, listed as PF-07220060 hydrate (Form 1)) of the same compound?
The value was 3.46%.

And the “Weight gain (%)” value ([5]; 25 °C, RH 80%, desorption, listed as PF-07220060 hydrate (Form 1))?
Its value is 3.55%.

What about the “Weight gain (%)” value ([5]; 25 °C, RH 80%, sorption, listed as PF-07220060 hydrate (Form 1)) of the same compound?
The value was 3.53%.

And the “Weight gain (%)” value ([5]; 25 °C, RH 90%, listed as PF-07220060 hydrate (Form 1))?
The value was 3.61%.

What about the “Weight gain (%)” value ([5]; 60 °C, RH 0% (initial drying step)) of the same compound?
Its value is 0.00%.

What about the “Weight Gain (%) at 25° C., 60% RH” value [5] of the same compound?
The value was about 3%.

Which “thermal stability relative to Form 1 and Form 8” value ([1]; TGA and DSC) does the source give for `CC(C)n1c(C(C)(C)O)nc2c(F)cc(-c3nc(N[C@@H]4CCOC[C@H]4O)ncc3Cl)cc21` [Form 6, 1,5-anhydro-3-({5-chloro-4-[4-fluoro-2-(2-hydroxypropan-2-yl)-1-(propan-2-yl)-1H-benzimidazol-6-yl]pyrimidin-2-yl}amino)-2,3-dideoxy-D-threo-pentitol] here?
The value was “improved thermal stability”.

And the “Thermal stability via DSC (° C.)” value ([1]; listed as Form 6 (anhydrous))?
Its value is 195 °C.

And the “Thermal stability via TGA (° C.)” value ([3]; listed as Form 6 (anhydrous))?
Its value is 195 °C.

What about the Out-going form [4] of the same compound?
The Out-going form was “converted to Form 2”.

What about the “form change at the completion” value ([5]; 60% RH) of the same compound?
Its value is “not detected”.

What about the “Weight Gain (%) at 25° C., 60% RH” value [5] of the same compound?
Its value is under 1%.

And the “hygroscopicity relative to Form 8 and Form 1” value ([5]; moisture sorption at 25° C., 60% RH)?
The value was “reduced hygroscopicity”.

With `CC(C)n1c(C(C)(C)O)nc2c(F)cc(-c3nc(N[C@@H]4CCOC[C@H]4O)ncc3Cl)cc21` [Form 8, 1,5-anhydro-3-({5-chloro-4-[4-fluoro-2-(2-hydroxypropan-2-yl)-1-(propan-2-yl)-1H-benzimidazol-6-yl]pyrimidin-2-yl}amino)-2,3-dideoxy-D-threo-pentitol] as the compound, how does the “Thermal stability via DSC (° C.)” value ([1]; listed as Form 8 (amorphous)) read?
Its value is −10 °C.

What about the “Thermal stability via TGA (° C.)” value ([3]; listed as Form 8 (amorphous)) of the same compound?
Its value is 20 °C.

What about the “form change at the completion” value ([5]; 60% RH) of the same compound?
Its value is “not detected”.

What about the “Weight Gain (%) at 25° C., 60% RH” value [5] of the same compound?
The value was about 2%.
